From patent US7494996B2 (priority 2000, dated 2009)

Assays:
[1] = test system: Mexican Bean Beetle; experiment: Protocol 1 Mexican Bean Beetle (BB) foliar spray test; format: in vivo, Epilachna verivestis; conditions: control rated after 48 hours (100 = all larvae dead)
Description: (§1) A test solution containing 1250 parts per million (ppm) was prepared by dissolving the test compound in […] of a second solvent (acetone: water, 1:1) to give an acetone:water: methanol system of 50: 40:10.
(§2) The enclosed spraying chamber consisted of a single spray nozzle mounted on a boom moving at a fixed speed and distance over stationary targets. The vertical distance from the nozzle tip to the targets was adjusted to give rates varying from 150 g/ha to 600 g/ha
(§3) Individual fully expanded primary lima bean (Phaseolus limensis) leaves were placed bottom side up on moistened pieces of filter paper in Petri dishes. The leaves were sprayed with the test solutions and allowed to dry. The dishes were infested with 5 third instar larvae of the mexican bean beetle, covered with the lids, and held at 27° C. Bean beetle control was rated by visual inspection after 48 hours. […] A rating of 0 indicated no dead larvae and normal feeding. Intermediate control was indicated by intermediate ratings.

[2] = test system: Pyricularia oryzae; experiment: whole plant or invertebrate; format: in vivo; conditions: 100 is total disease control, 0 is no disease control; for Rice Blast (RB) protectant fungicide data, percent control: 300 g/ha, greenhouse; for pest or weed control at 300 g/ha: Pyricularia oryzae, topical, 144 h, read-out: Rice Blast (RB) protectant fungicide data, percent control, protectant, 300 g/ha, greenhouse
[3] = test system: Sphaerotheca fuliginea; experiment: Cucumber Powdery Mildew (CPM) protectant test in the greenhouse; format: in vivo; conditions: 100 is total disease control, 0 is no disease control; for Cucumber Powdery Mildew (CPM) protectant fungicide data, percent control: 300 g/ha; for pest or weed control at 300 g/ha: Podosphaera fuliginea, topical, 168 h, read-out: Cucumber Powdery Mildew (CPM) protectant fungicide data, percent control
Method in brief: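 Protectant format: one day after spraying with test compound (A/M/W 1:1:2), cotyledon-plus-one-leaf cucumber plants were misted with Sphaerotheca spores at 2×10^5/ml. Greenhouse disease development; percent control scored at day 7 (100 = total, 0 = none).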

[4] = test system: Southern Armyworm; experiment: Protocol 1 Southern Armyworm (AW) foliar spray test; format: in vivo, Spodoptera eridania
Description: as §1, §2
as §3, with “southern armyworm,” for “mexican bean beetle,”, “Armyworm” for “Bean beetle”

[5] = test system: Two-Spotted Spider Mite; experiment: Protocol 1 Two-Spotted Spider Mite (MTA) foliar spray test; format: in vivo, Tetranychus urticae; conditions: percentage of mites killed 1-day post-treatment
Description: as §1, §2
A pad of moistened cotton was placed in a Petri dish. A 1-inch square section cut from a fully expanded primary lima bean (Phaseolus limensis) leaf was positioned bottom side up on the moist cotton. The leaf square was infested with approximately 50 adult female mites. The dishes were sprayed with the test solutions and held at 27° C. for mortality determination 1-day post-treatment. The percentage of mites killed were rated from 100% (all dead) to 0% (all alive).

| SMILES | BB ([1]; Protocol 1, DOSE 150) | Rice Blast (RB) protectant fungicide data, percent control [2] | Cucumber Powdery Mildew (CPM) protectant fungicide data, percent control [3] | AW ([4]; Protocol 1, DOSE 150) | MTA ([5]; Protocol 1, DOSE 150) | BB ([1]; Protocol 1, DOSE 300) | AW ([4]; Protocol 1, DOSE 300) | MTA ([5]; Protocol 1, DOSE 300) | pest or weed control at 300 g/ha [2] | pest or weed control at 300 g/ha [3] | AW ([4]; Protocol 1, DOSE 600) |
| --- | --- | --- | --- | --- | --- | --- | --- | --- | --- | --- | --- |
| O=C1CNC(c2ccccn2)=NN1CC(F)(F)F [Compound 52] | 0 | 50 percent control | 0 percent control | 0 | 100% | – | – | – | – | – | – |
| O=C1CNC(c2cccc(Cl)c2)=NN1CC(F)(F)F [Compound 37] | – | 95 percent control | 75 percent control | – | – | 75 | 100 | 75% | – | – | – |
| Cc1c(Cl)cc(-c2ncc(=O)n(CC(F)(F)F)n2)cc1Cl [Compound 253] | 0 | 100 percent control | 50 percent control | 0 | 100% | – | – | – | – | – | – |
| O=c1cnc(-c2ccc(Cl)cc2)nn1C1CCCCC1 [Compound 256] | 0 | 95 percent control | – | 0 | 90% | – | – | – | – | – | – |
| CCCCCn1nc(-c2ccc(Cl)cc2)ncc1=O [Compound 234] | – | 100 percent control | 80 percent control | – | – | 0 | 0 | 100% | – | – | – |
| CC(C)(C)N1N=C(c2ccc(Cl)cc2)NCC1=O [Compound 6, 1-t-Butyl-3-(4-chlorophenyl)-4,5-dihydro-1,2,4-triazin-6-one] | – | – | – | – | – | 100 | 0 | – | 90% | 50% | – |
| C=CCn1nc(-c2ccc(Cl)cc2)ncc1=O [Compound 236] | – | 99 percent control | 90 percent control | – | – | 100 | 0 | 100% | – | – | – |
| CCCSC1NC(c2ccc(Cl)cc2)=NN(CC(F)(F)F)C1=O (centres unmarked) [Compound 19, 1-(2,2,2-trifluoroethyl)-3-(4-chlorophenyl)-5-propylthio-4,5-dihydro-1,2,4-triazin-6-one] | 100 | – | – | 0 | – | – | – | – | 100% | 75% | – |
| O=c1cnc(-c2cccc(Cl)c2)nn1CC(F)(F)F [Compound 245] | – | 99 percent control | 0 percent control | – | – | 100 | 100 | 100% | – | – | – |
| COC1NC(c2ccc(Cl)cc2)=NN(CC(F)(F)F)C1=O (centres unmarked) [Compound 26] | – | 100 percent control | 95 percent control | – | – | 50 | 0 | 0% | – | – | – |
| CCC#CCn1nc(-c2ccc(Cl)cc2)ncc1=O [Compound 8, 1-(2-pentynyl)-3-(4-chlorophenyl)-1,2,4-triazin-6-one] | – | – | – | – | – | 0 | 0 | – | 99% | 90% | – |
| Cc1ccc(C2=NN(CC(F)(F)F)C(=O)CN2)cc1 [Compound 41] | – | 100 percent control | 50 percent control | – | – | 50 | 0 | 0% | – | – | – |
| CCC(C)n1nc(C2CCCCC2)ncc1=O (centres unmarked) [Compound 255] | 90 | 50 percent control | 0 percent control | 0 | 100% | – | – | – | – | – | – |
| CN1CC(=O)N(CC(F)(F)F)N=C1c1ccccc1 [Compound 34] | – | – | – | – | – | 75 | 0 | 0% | – | – | – |
| O=c1cnc(-c2ccc(Cl)cc2)nn1Cc1ccccc1 [Compound 240] | – | 95 percent control | 75 percent control | – | – | 75 | 50 | 100% | – | – | – |
| O=c1cnc(Cc2ccccc2)nn1CC(F)(F)F [Compound 249] | 0 | 85 percent control | 0 percent control | 100 | 90% | – | – | – | – | – | – |
| CCn1nc(-c2ccc(Cl)cc2)ncc1=O [Compound 235] | – | 90 percent control | 80 percent control | – | – | 100 | 0 | 100% | – | – | – |
| CCCCN1N=C(c2ccc(Cl)cc2)NCC1=O [Compound 50] | 0 | 100 percent control | 80 percent control | 0 | 75% | – | – | – | – | – | – |
| O=C1CNC(Cc2ccccc2)=NN1CC(F)(F)F [Compound 44] | 0 | 85 percent control | 0 percent control | 75 | 0% | – | – | – | – | – | – |
| O=c1cnc(C2CCCCC2)nn1CC(F)(F)F [Compound 251] | 50 | 75 percent control | 0 percent control | 0 | 75% | – | – | – | – | – | – |
| O=c1cnc(-c2ccccc2)nn1CC(F)(F)F [Compound 7, 1-(2,2,2-trifluoroethyl)-3-phenyl-1,2,4-triazin-6-one] | – | – | – | – | – | 100 | 0 | – | 95% | 75% | – |
| CCCC(C)n1nc(-c2ccc(Cl)cc2)ncc1=O (centres unmarked) [Compound 254] | 100 | 95 percent control | 0 percent control | 0 | 100% | – | – | – | – | – | – |
| Cn1nc(-c2ccc(Cl)cc2)ncc1=O [Compound 238] | – | 50 percent control | 90 percent control | – | – | 75 | 0 | 100% | – | – | – |
| O=c1cnc(-c2ccc(Cl)cc2)nn1CC(F)(F)F [Compound 233] | – | 100 percent control | 80 percent control | – | – | 75 | 50 | 0% | – | – | – |
| O=C1CNC(c2cc(Cl)cc(Cl)c2)=NN1CC(F)(F)F [Compound 43] | 0 | 99 percent control | 80 percent control | 50 | 0% | – | – | – | – | – | – |
| O=C1CNC(c2ccc(Cl)cc2)=NN1CC(F)(F)F [Compound 4, 1-(2,2,2-trifluoroethyl)-3-(4-chlorophenyl)-4,5-dihydro-1,2,4-triazin-6-one] | – | – | – | – | – | 0 | 75 | – | 99% | 50% | – |
| CC(C)(C)n1nc(-c2ccc(Cl)cc2)ncc1=O [Compound 241] | – | 50 percent control | 0 percent control | – | – | 0 | 0 | 100% | – | – | – |
| Cn1nc(-c2ccccc2)ncc1=O [compound 242] | – | – | – | – | – | 90 | 0 | 100% | – | – | – |
| Cc1nc(-c2ccc(Cl)cc2)nn(CC(F)(F)F)c1=O [compound 239] | – | – | – | – | – | 75 | 0 | 0% | – | – | – |
| O=C1CNC(c2ccc(Cl)cc2)=NN1 [Compound 5, 3-(4-Chlorophenyl)-4,5-dihydro-1,2,4-triazin-6-one] | – | – | – | – | – | 75 | – | – | 75% | 50% | 50 |
